# Columns and labels:
# [1] = Prevention test of skin adsorption of drug: nonabsorbed calcitonin in solution on excised rat skin (Example 2), HPLC; format: in vitro ADME, male hairless rats; details: after one hour, 2 μg/ml calcitonin, 60 min
# Experimental: The stomach skin of male hairless rats of 13 weeks age were sheared by electric shears, then lightly rubbed and disinfected by absorbent cotton containing an aqueous solution of 70% ethanol. The skin was separated by scissors, then placed on a paper towel moistened with physiological saline with the epidermal side facing up. An acrylic chamber cup (18 mm diameter and 20 mm height) was immersed for 5 minutes in a silicone coating and an aqueous solution of 1% benzalkonium chloride, then was fully rinsed and washed by distilled water. The acrylic chamber cup was adhered to the skin by medicinal adhesive and dried, then filled with 2 ml of an aqueous solution of 1% benzalkonium chloride (Group 2)or distilled water as a control (Group 1) and allowed to stand for 5 minutes. The solution was removed then the cup was fully rinsed and washed by distilled water. As one example of the polypeptide drug, a solution of 2 μg/ml of calcitonin (synthetic salmon calcitonin made by Sigma Co.) in distilled water was prepared. A 2 ml amount each were added to two acrylic chamber cups treated as explained above which were then allowed to stand. Amounts of 100 μl each were sampled after 1, 2, and 6 hours and the amount of nonabsorbed calcitonin in the solution was measured by high pressure liquid chromatography.
# [2] = test system: calcium value in the rat serum; assay: Transdermal iontophoretic administration of calcitonin in rats after skin cleaning (Example 3), serum calcium; format: in vivo, male SD rats; details: 0.04 μg per sheet, 6 V, 30 kHz, 30% duty, 45 minutes
# Experimental: Under pentobarbital anesthesia, 7 week old male SD rats had their stomach skin sheared by electric shears and shaved by a shaver, then absorbent cotton containing an aqueous solution of 70% by weight ethanol (Group 3) or absorbent cotton containing an aqueous solution of 70% by weight ethanol plus 0.01% benzalkonium chloride (Group 4) was used to lightly rub and disinfect the areas. Calcitonin dried and held in an amount of 0.04 μg per sheet of drug film (synthetic salmon calcitonin made by Sigma Co.) was dissolved in an aqueous solution at the time of use and used for one rat. The conditions of conductance of power in the iontophoresis were a depolarization type constant voltage high duty pulse of 6 V, 30 kHz, and 30% duty applied for 45 minutes. The blood was sampled after a predetermined time from the jugular vein and was centrifugally separated at 12,000 rpm for 5 minutes. The supernatant was used as the serum sample. The calcium in the blood was measured by the o-cresol phthalein complex method (Calcium C Test Wako made by Wako Pure Chemical Industries, Ltd.).
# [3] = test system: calcium value in the rat serum; assay: Transdermal iontophoretic administration of calcitonin in rats with benzalkonium chloride-treated or nontreated nylon porous film (Example 1), serum calcium; format: in vivo, SD male rats; details: 2 IU (0.4 μg) per sheet, 6 V, 30 kHz, 30% duty, 45 minutes
# Excerpt: These drug holding members, that is, the ion exchange membrane (4), nonwoven fabric (5), and nylon porous member (6) (in this case the holding including at least contact with a drug contact member also acceptable) are coated or impregnated uniformly by an aqueous solution of 0.01% benzalkonium chloride or else immersed in an aqueous solution of the same for treatment, then stripped of water and dried. Of the thus obtained AC-220 membrane, nonwoven fabric, and nylon porous member, the skin contact surface of the nylon porous member has deposited on it a bioactive peptide by a means such as spray coating or impregnation followed by drying for retention. The portion of the nylon porous member (6) coming into contact with the live skin has the drug (11) affixed to it. At the edges of the nylon porous member (6) and under the support (10) are for example disposed an adhesive tape (8) composed of Blenderm® (made by 3M Health Care Ltd.).
# Method: Under pentobarbital anesthesia, 7 week old SD male rats had their stomach skin sheared by electric shears and shaved by a shaver, then absorbent cotton containing an aqueous solution of 70% by weight ethanol was used to lightly rub and disinfect the area. […] The serum calcium was measured by the o-cresol phthalein complex method (Calcium C Test Wako made by Wako Pure Chemical Industries, Ltd.).
substance,measurement,setting,value
calcitonin,amount of calcitonin in the aqueous solution in terms of the initially prepared concentration,[1]; skin washed with 1% benzalkonium chloride (Group 2),approximately 60%
same,amount of calcitonin in the aqueous solution in terms of the initially prepared concentration,[1]; skin washed with just distilled water (Group 1),approximately 30%
same,maximum reduction in the calcium value in rat serum,[2]; skin cleaned by 70% by weight ethanol containing 0.01% benzalkonium chloride (Group 4),about 30%
same,maximum reduction in the calcium value in the rat serum,[2]; skin cleaned by 70% ethanol alone (Group 3),approximately 13%
same,maximum reduction in the calcium value in the rat serum,[3]; nylon porous film not coated with surfactant (nontreated group),approximately 17%
same,maximum reduction in the calcium value in the rat serum,[3]; nylon porous film treated by benzalkonium chloride (treated group),28%

# — patent publication US5894021A, “Iontophoretic transdermal drug-delivery interface and skin treatment agent and treatment method using the same” (Kabushiki Kaisya Advance, priority 1994, dated 1999)
